# From the NIST ThermoML archive (doi:10.1016/j.fluid.2006.10.023)
# Values joined by “and” are separate entries in the source; they are usually repeats but may differ in a detail not shown here. Identical values can stand only once. Numbers after ± are expanded uncertainties.
# Conditions: Liquid, Closed cell (Static) method
Structure (SMILES),vapor or sublimation pressure (253.15 K),vapor or sublimation pressure (273.15 K),vapor or sublimation pressure (293.15 K)
"FCC(F)(F)F [1,1,1,2-tetrafluoroethane]",133.5 ± 2.1 kPa,291.8 ± 2.2 kPa,572.1 ± 2.6 kPa
C1CC1 [cyclopropane],171.3 ± 2.1 kPa and 171.2 ± 2.1 kPa,344.1 ± 2.3 kPa and 344.7 ± 2.3 kPa,631.7 ± 2.8 kPa and 632.2 ± 2.8 kPa
FC(F)C(F)(F)F [pentafluoroethane],337.3 ± 2.3 kPa,672.1 ± 2.9 kPa,1204.7 ± 4.1 kPa
